Reference: BindingDB's records for doi:10.1021/jm960597m (Division of Warner Lambert, 1997)

Assay: Inhibition of [3H]thymidine uptake by Dopamine receptor D2

Compound `c1ccc(N2CCN(CC[C@H]3CC[C@H](c4c[nH]c5ccccc54)CC3)CC2)nc1` [3-{4-[2-(4-Pyridin-2-yl-piperazin-1-yl)-ethyl]-cyclohexyl}-1H-indole] has an EC50 of 2.8 nM.
